Test results from US11364227B2 (priority 2020, dated 2022).

Assays:
ARDS induced thrombosis = test: Rat venous stasis (Wessler) model after LPS-induced lung injury (ARDS induced thrombosis); type: in vivo, Sprague-Dawley rats; conditions: 250 mg/kg oral gavage 3, 24, 48, 72 h post LPS instillation; rat venous stasis 30 min
Text: This study assessed the efficacy of ABC294640 to reduce the incidence of adverse thromboembolic events in situ in acute respiratory distress syndrome (ARDS) conditions using a rat venous stasis model. This assay is designed to measure thrombotic risks following LPS-induced lung injury. LPS-induced lung injury is one of the most commonly used rodent models for ARDS and was described to mimic the neutrophilic inflammatory response observed in ARDS patients. The mechanism of LPS-induced ARDS is based on damage to endothelial cells and a systemic inflammatory response. […]
Sprague-Dawley rats (male) weighing between 275 and 400 g were used for this study. […] The body weight was recorded before the instillation and 24, 48 and 72 hours post-instillation.
In this study, ARDS was induced by intratracheal instillation of LPS. […] The segment was then excised and its content scored. […]
• 1. Prior LPS or saline instillation, the functional respiratory parameters of all rat was assessed by whole-body plethysmography and SpO2 was evaluated on conscious rat with a collar probe pulse oximeter. […] The respiratory rate, the Penh and the inspiratory/expiratory time measurements was analyzed. • 2. […]
• 5. Rats were evaluated periodically to ensure animal well-being (general behavior and daily body weight). • 6. […] SpO2 and whole-body plethysmography were also evaluated 24, 48 and 72 hours post-instillation. • 8. […]

[1] = test system: human bronchial epithelial cells (HBEC); conditions: highest concentration tested, 11.25 μg/ml
[2] = test system: COVID-19 infection (SARS-CoV-2); test: Pilot / compassionate use study of opaganib in patients hospitalized with COVID-19 pneumonia; type: in vivo, human
Method: Patients entered a screening period of up to 1 week. Eligible patients entered the treatment period for up to 2 weeks. All participants were followed for 2 weeks after their last dose of study drug, at the end of the 2 week treatment period, or once they had 2 consecutive daily negative viral swabs for the COVID-19 virus or at after premature drug discontinuation prior to Day 14. The maximum duration of study participation was 35 days […].
Each dose is administered with food or 15-30 minutes after tube-feeding, where appropriate. […] These patients had moderate to severe COVID-19-related pneumonia with hypoxia on supplemental oxygen.
Five patients were included in the analysis, and for comparison purposes, we used a control group with same-sex, same-severity patients (baseline characteristics). Univariate comparisons between the groups were performed with chi-square test for categorical variables and t-test or MannWhitney U-test for continuous variables, as appropriate. Time variables were compared with Cox proportional hazard regression, adjusted for age and background illnesses. CRP and lymphocyte changes were compared utilizing a repeated measures general linear model with a Bonferroni correction for multiple comparison.

[3] = test system: COVID-19 pneumonia (SARS-CoV-2); test: Randomized, double-blind, placebo-controlled Phase 2a study of opaganib in COVID-19 pneumonia; type: in vivo, human
Text: This was a phase 2a, proof of concept, multi-center randomized double-blind, parallel arm, placebo-controlled study. After informed consent was obtained, patients entered a screening phase for no more than 3 days, to determine eligibility. […] Treatment assignments remained blinded to the patient, investigator and hospital staff, as well as the sponsor. As there was no consensus for a definitive treatment specifically targeting the SARS-CoV-2 virus causing COVID-19 (Wilson, 2020), standard of care referred to regional, institutional or physician directed therapies, that were implemented during the COVID-19 pandemic.
Study drug was to be administered every day for 14 days (Day 1 to Day 14), unless the patient had been discharged from the hospital without requiring supplemental oxygen, in which case study drug would only be administered to Day 10.
Two patients were randomized in each group but not treated. […] Two patients in the opaganib arm experienced adverse events such that study drug was terminated, while one placebo patient was terminated due to an adverse event.
The primary efficacy endpoint calculated for each patient the area under the curve of the supplemental oxygen requirement through day 14, using the trapezoidal rule after subtracting the baseline oxygen requirement at each day. Days where no supplementary oxygen was needed, were recorded as 0. If several values of oxygen requirement (L/min) are recorded in a certain day, for the primary analysis the highest of these values were taken. In the primary analysis, for patients who die before Day 14, or require intubation and mechanical ventilation, missing daily values were assigned the maximal supplemental oxygen flow requirement of 8 L/min. For patients discharged from hospital on supplemental oxygen prior to Day 14, if no values were collected by the site after discharge, the oxygen requirement (L/min) on the day of discharge were to be assigned thereafter for each day to Day 14.
Supplemental oxygen requirement up to Day 14 was collected even if a patient discontinued treatment prior to Day 14 but continued in the study to Day 14. Further, it was assumed that loss to follow up such that vital status up to Day 14 were missing is unlikely. Therefore, the primary analysis assumed that in case that all supplemental oxygen values are missing after treatment discontinuation, the last value is carried forward—until Day 14, or death, if occurred before. A sensitivity analysis to the above missing data handling approach was performed using an AUC summary statistics approach, in which groups AUC is calculated from the estimated parameters of a Repeated-Measures model.
Within the mITT cohort, two subjects withdrew their consent due to grade 1 gastrointestinal AEs.

[4] = test system: SARS-CoV-2 clinical isolate (2019-nCoV/USA-WA1/2020); test: Anti-viral activity against SARS-CoV-2 in human bronchial epithelial cell (HBEC, EpiAirway) air-liquid-interface cultures, viral titer by TCID50; type: cell-based
[5] = Physical description of opaganib drug substance (solubility, hygroscopicity); type: physicochemical
[6] = of 6 moderate-to-severe patients treated, opaganib plus standard-of-care

O=C(NCc1ccncc1)C12CC3CC(C1)CC(c1ccc(Cl)cc1)(C3)C2 [ABC294640, 3-(4-chlorophenyl)-adamantane-1-carboxylic acid (pyridin-4-ylmethyl)amide]
thrombosis (blood clot length, weight and total thrombus score) (ARDS induced thrombosis): reduction of thrombosis

Cl.O=C(NCc1ccncc1)C12CC3CC(C1)CC(c1ccc(Cl)cc1)(C3)C2 [opaganib, 3-(4-chlorophenyl)-adamantane-1-carboxylic acid (pyridin-4-ylmethyl) amide, hydrochloride salt]
cell viability [1]: remained viable | HR for time to weaning from HFNC, cases vs. controls ([2]; Cox regression, 95% CI: 0.07-1.7, p=0.2): 0.3 | HR for time to ambient air, cases vs. controls ([2]; Cox regression, 95% CI: 0.15-1.5): 0.4 | Clinical Assessment ([2]; Patient 1 (14 d), started as severe on maximal OptiFlow Apr. 3, 2020, RA = room air): Apr. 3, 2020; RA by 16/4. As of 22/4, one negative | Lymphocytes, most recent ([2]; Patient 1 (14 d on opaganib), baseline 1.6, Apr. 17, 2020): 2.8 (Apr. 17, 2020) 10^3/mm^3 | CRP, most recent ([2]; Patient 1 (14 d on opaganib), baseline 15.1, Apr. 17, 2020): 1 (Apr. 17, 2020) mg/L | Clinical Assessment ([2]; Patient 2 (14 d), started as severe+, planning for intubation Apr. 7, 2020, RA = room air, D/C = discharged): Apr. 7, 2020; RA by Apr. 20, 2020, D/C on Apr. 22, 2020 | Lymphocytes, most recent ([2]; Patient 2 (14 d on opaganib), baseline 1.1, Apr. 17, 2020): 2.1 (Apr. 17, 2020) 10^3/mm^3 | CRP, most recent ([2]; Patient 2 (14 d on opaganib), baseline 14.2, Apr. 17, 2020): 4.8 (Apr. 17, 2020) mg/L | Clinical Assessment ([2]; Patient 3 (7 d), moderate-severe, on OptiFlow Apr. 13, 2020, D/C = discharged): Apr. 7, 200, D/C on Apr. 19, 2020 | Lymphocytes, most recent ([2]; Patient 3 (7 d on opaganib), baseline 0.9, Apr. 17, 2020): 1.2 (Apr. 17, 2020) 10^3/mm^3 | CRP, most recent ([2]; Patient 3 (7 d on opaganib), baseline 10.7, Apr. 17, 2020): 1.7 (Apr. 17, 2020) mg/L | Clinical Assessment ([2]; Patient 4 (11 d), started severe+ 70% OptiFlow on Apr. 13, 2020, RA = room air): RA on Apr. 22, 2020 | Lymphocytes, most recent ([2]; Patient 4 (11 d on opaganib), baseline 1.2, Apr. 22, 2020): 1 (Apr. 22, 2020) 10^3/mm^3 | CRP, most recent ([2]; Patient 4 (11 d on opaganib), baseline 24.8, Apr. 22, 2020): 17.4 (Apr. 22, 2020) mg/L | Clinical Assessment ([2]; Patient 5 (2 d), started moderate on Apr. 13, 2020, nasal cannula, D/C = discharged, RA = room air): opaganib; D/C on Apr. 14, 2020 on RA | Lymphocytes, most recent ([2]; Patient 6 (5 d on opaganib), baseline 1.35, Apr. 24, 2020): 1.96 (Apr. 24, 2020) 10^3/mm^3 | CRP, most recent ([2]; Patient 6 (5 d on opaganib), baseline 12.2, Apr. 24, 2020): 6.8 (Apr. 24, 2020) mg/L | adverse event leading to discontinuation ([2]; Patient 7, also on HCQ and azithromycin, may or may not be related to opaganib, all 3 meds stopped): Diarrhea the next day, all 3 meds were stopped, followed by worsening SOB, on 75% OptiFlow. | clinical improvement ([2]; all 6 moderate to-severe patients (patient #7 excepted)): improved significantly | C-Reactive Protein (CRP) change ([2]; all six patients): reduction in C-Reactive Protein (CRP) | time to ambient air ([2]; cases, controls 14.5 days): 13 days | median time to weaning from high-flow nasal cannula (HFNC) ([2]; cases, controls 15 days, p=0.2): 10 days | cases requiring mechanical ventilation ([2]; compared with 33% of controls): none of the cases required mechanical ventilation | increase in lymphocyte count vs matched control group ([2]; five patients analysed vs same-sex, same-severity controls): significantly faster increase in lymphocyte count | number of patients back to breathing room air [2, 6]: 5 patients | number of patients discharged from hospital [2, 6]: 3 patients | safety and tolerability ([2]; small cohort of severe COVID-19 patients): safe and well tolerated | proportion of patients reaching room air and no longer requiring oxygen support by Day 14 ([3]; opaganib 500 mg Q12 h + standard of care, control arm 22.2%): 52.6% | reduction from baseline of the medial total oxygen requirement (AUC) over 14 days ([3]; opaganib 500 mg Q12 h + standard of care, control arm 46.7%): 68.0% | proportion of patients discharged by Day 14 ([3]; opaganib 500 mg Q12 h + standard of care, control arm 55.6%): 73.7% | proportion of patients with 50% reduction in supplemental oxygen by day 14 ([3]; opaganib 500 mg Q12 h + standard of care, control arm 66.7%): 89.5% | patients with adverse events such that study drug was terminated ([3]; opaganib arm, one in placebo arm): Two | patients with serious adverse events (SAEs) vs placebo arm ([3]; opaganib treatment arm compared with placebo arm): fewer patients suffered from serious adverse events | safety (top-line) ([3]; vs placebo arm): safe, with no material safety differences | concentration at which complete inhibition of infectious virus production starts ([4]; SARS-CoV-2-infected HBEC, 3 days incubation): 1 µg/mL | infectious virus production ([4]; SARS-CoV-2-infected HBEC, 3 days incubation, 0.05 to 11.25 μg/ml): dose-dependent reduction | inhibition at 0.05 µg/mL ([4]; Severe acute respiratory syndrome coronavirus 2, Epithelial cell, read-out: inhibition of infectious virus production): > 90% | solubility in water and ethyl acetate [5]: practically insoluble | hygroscopicity ([5]; solid): non-hygroscopic
